Consider 2 compounds from patent publication US20060057073A1, “Wet granulation process” (Pari GmbH, priority 2002, published 2006).

The conditions of series [1]: drug substance as free acid; cited from earlier work.
Series [2] can be described thus: Bulk density according to Ph. Eur. Format: physicochemical.
The conditions of series [3]: base; cited from earlier work.
Series [4] is described as follows: Particle size by laser diffraction (Malvern MasterSizer 2000, dry dispersing). The settings on record: mean diameter of the volume distribution; mean of three measurements. Format: physicochemical.

Regarding `C[C@H]1[C@H](NC(=O)/C(=N\OC(C)(C)C(=O)O)c2csc(N)n2)C(=O)N1S(=O)(=O)O` [Aztreonam], the “intrinsic pH” value in series [1] was “about 1”. The same compound gave an Aqueous solubility in “Aqueous solubility” of less than 0.1%. In “Aqueous solubility” (in water), the “Aqueous solubility (in words)” value was “nearly insoluble”. Also, in series [2], the Bulk density came to 0.49 g/mL.

As for `COc1ccc(Cc2nccc3cc(OC)c(OC)cc23)cc1OC` [papaverine], in series [3], the pK is 8.07. Further, the Bulk density in series [2] is 0.41 g/mL. For the same compound, the “D50% (laser diffraction)” value in series [4] was determined as 28.5 μm.
